Laboratory results from US12612358B2, “Resorcinol-based compounds and uses thereof” (priority 2020, dated 2026).

Experiments:
[1] = system: Id-1; assay: Id-1 expression in primary patient-derived BRC25 cells; type: cell-based, human
Procedure: Quantitative Western analysis: Cells are cultured and treated in 6-well dishes. After the cells are washed twice with cold PBS, lysis buffer is added. The cells are then lysed by freezing for 10 min at −70° C. and then thawing at ambient temperature. The cell lysate is collected and the protein content is determined by using Bradford reagent. Equal amounts of protein are heated at 90° C. in Laemmli sample buffer which also included β-mercaptoethanol. The samples are then loaded onto a precast SDS-PAGE gel (Bio-Rad Laboratories, Hercules, CA). After which, proteins are then electroblotted onto an Immobilon membrane (Millipore, Billerica, MA) overnight at 2-4° C. The membrane is then blocked for 1 hour with 5% nonfat dry milk which included TBS+Tween. The membranes are then incubated with an anti-Id-1 primary antibody, and then an appropriate secondary antibody was used. Blots are incubated for 45 min and then washed 4 times with TBS+Tween for 15 min each. […]
Effects of Compound-5B on breast cancer cell proliferation, Id-1 expression and invasion in culture. […] The ability of the cells to migrate and invade in modified Boyden chambers was determined. The percentage relative invasion was calculated as the effect on treated cells/vehicle cells×100. […]

[2] = system: BXPC-3; assay: CellTiter-Glo cell proliferation, BxPC-3 pancreatic cancer cells; type: cell-based; settings: Homo sapiens, read-out: IC50 category
Source text: Cell culture and treatment of pancreatic cancer cell lines: Pancreatic cancer cells lines BxPC-3, SW1990, and PANC-1 used in the experiments presented herein can be obtained from ATCC. The cells can be cultured and passaged in complete growth medium (RPMI-1640, Dulbecco's Modified Eagle Medium, or Leibovitz's L-15 medium) that has been supplemented with fetal bovine serum to a final concentration of 10%.
Effects of Compound-5B on proliferation and Id-1 expression in pancreatic cell lines. Compound-5B was next tested for inhibition of cell viability/proliferation in the three pancreatic cancer cell lines and two primary patient-derived cancer cell lines. Compound-5B inhibited cell viability/proliferation of all the cancer cell lines (Table 2). The culturing condition for the pancreatic cell lines was similar to those used in the breast cancer lines, with the exception of the primary patient-derived pancreatic cancer cell lines (PANC9 and PANC13). […] Cell proliferation of pancreatic cells in the presence of drug was measured using the CellTiter-Glo luminescent Assay and IC50 values were calculated (Table 2). […]

[3] = system: MDA-MB231 breast cancer cells; assay: Combination with paclitaxel, viability of MDA-MB231 cells (combination index); type: cell-based, human; settings: combination with paclitaxel at optimal combined ratios
Procedure: Concentration-response curves were generated for Compound-5B and paclitaxel alone and in combination (FIG. 2C). The inhibitory values from the concentration response curves were used to calculate combination index (CI) values at multiple combination ratios (FIG. 3A). Methods: Multiple viability assays in a 384 well format were run for each compound and the average percent inhibition of cell viability was calculated and transformed to fraction affected (Fa) e.g., percent inhibitory effect. CI values were calculated using Compusyn software (FIG. 3B). After determining the (IC50/Fa 0.5) values of the drugs individually (C), components were then combined at specific concentration ranges (FIG. 3B) and a combination index was calculated where CI<1, =1, and >1 indicate synergism, additive effect, and antagonism, respectively.

[4] = system: U251 (glioblastoma); assay: Cell proliferation, U251 glioblastoma cells; type: cell-based; settings: Homo sapiens, U-251, read-out: IC50 category
Source text: (§1) Effects of Compound-5B on cell proliferation in additional cancer cells: To determine whether Compound-5B would have broad based anticancer activity, we study whether Compound-5B would be effective at inhibiting cell proliferation in a variety of cancers overexpressing Id-1. The assay conditions used were identical to those presented for breast and pancreatic cancers. Indeed, Compound-5B was potent at inhibiting cell proliferation in blood cancer (leukemia), glioblastoma, prostate, and ovarian cancer.

[5] = system: Kasumi −1 (leukemia); assay: Cell proliferation, Kasumi-1 leukemia cells; type: cell-based; settings: Homo sapiens, read-out: IC50 category
Source text: as §1

[6] = system: MDA-MB231 D3H; assay: CellTiter-Glo viability/proliferation assay, MDA-MB231 breast cancer cells; type: cell-based; settings: Homo sapiens, MDA-MB-231, 48 h; CellTiter-Glo, two-day treatment; read-out: Inhibition of MDA-MB231 D3H
[7] = biological target: T1, hERG (Homo sapiens, UniProt Q12809); assay: hERG channel inhibition; type: biochemical
T1 construct: purchased Eurofins
Procedure: Evaluating ADME of Compound-5B in vitro. It is important to evaluate ADME first in culture as it allows for the selection of the best candidate for PK analysis in vivo. ADME analysis of Compound-5B was performed by Eurofins.

[8] = biological target: T2, DRD1 (Dopamine receptor D1) (Homo sapiens, UniProt P21728); assay: SAFETY scan E/IC50 ELECT, DRD1; type: biochemical; settings: read-out: inhibition against DRD1 (mild)
T2 construct: purchased Eurofin's
T2 sequence (P21728 whole entry): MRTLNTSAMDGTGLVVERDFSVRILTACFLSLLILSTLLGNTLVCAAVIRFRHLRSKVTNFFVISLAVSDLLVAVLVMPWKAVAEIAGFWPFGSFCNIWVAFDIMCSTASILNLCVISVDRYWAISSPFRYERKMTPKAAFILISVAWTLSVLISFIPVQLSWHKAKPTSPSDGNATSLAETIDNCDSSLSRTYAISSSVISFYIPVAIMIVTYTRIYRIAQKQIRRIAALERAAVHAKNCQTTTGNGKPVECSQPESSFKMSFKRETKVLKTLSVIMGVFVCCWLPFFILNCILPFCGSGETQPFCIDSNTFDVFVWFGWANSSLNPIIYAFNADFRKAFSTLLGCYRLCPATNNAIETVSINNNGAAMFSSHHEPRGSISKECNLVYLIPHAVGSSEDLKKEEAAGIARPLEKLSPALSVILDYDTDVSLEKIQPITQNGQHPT

T1 sequence (Q12809 whole entry): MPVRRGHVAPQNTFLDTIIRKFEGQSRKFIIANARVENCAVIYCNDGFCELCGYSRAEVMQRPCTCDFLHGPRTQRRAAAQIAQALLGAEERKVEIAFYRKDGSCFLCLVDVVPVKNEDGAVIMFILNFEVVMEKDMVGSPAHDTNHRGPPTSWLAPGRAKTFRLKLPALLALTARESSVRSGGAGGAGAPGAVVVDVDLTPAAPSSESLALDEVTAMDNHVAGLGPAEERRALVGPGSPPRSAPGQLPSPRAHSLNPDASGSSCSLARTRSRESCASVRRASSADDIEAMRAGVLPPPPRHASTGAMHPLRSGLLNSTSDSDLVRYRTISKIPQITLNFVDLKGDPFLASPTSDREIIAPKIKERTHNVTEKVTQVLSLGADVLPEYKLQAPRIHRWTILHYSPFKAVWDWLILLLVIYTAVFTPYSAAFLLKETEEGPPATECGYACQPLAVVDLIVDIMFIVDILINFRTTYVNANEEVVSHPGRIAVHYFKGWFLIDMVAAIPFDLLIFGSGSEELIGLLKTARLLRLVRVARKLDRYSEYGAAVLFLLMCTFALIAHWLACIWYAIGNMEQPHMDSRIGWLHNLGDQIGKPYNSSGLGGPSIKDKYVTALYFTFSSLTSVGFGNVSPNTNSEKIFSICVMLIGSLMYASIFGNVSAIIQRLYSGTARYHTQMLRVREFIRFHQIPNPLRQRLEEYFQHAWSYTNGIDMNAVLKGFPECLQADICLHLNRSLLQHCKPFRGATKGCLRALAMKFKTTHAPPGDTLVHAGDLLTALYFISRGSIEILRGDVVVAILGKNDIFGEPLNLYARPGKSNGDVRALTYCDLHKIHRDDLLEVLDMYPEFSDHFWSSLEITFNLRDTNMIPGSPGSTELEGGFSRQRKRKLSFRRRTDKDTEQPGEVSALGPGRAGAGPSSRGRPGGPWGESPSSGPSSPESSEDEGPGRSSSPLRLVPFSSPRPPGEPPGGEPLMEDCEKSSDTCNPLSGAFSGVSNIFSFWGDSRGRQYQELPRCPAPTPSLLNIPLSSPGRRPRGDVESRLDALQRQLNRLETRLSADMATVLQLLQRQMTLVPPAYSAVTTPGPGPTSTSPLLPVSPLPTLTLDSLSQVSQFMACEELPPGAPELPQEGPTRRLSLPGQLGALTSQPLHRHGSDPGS

CCCCCCC(C)(C)c1cc(O)c(C(=O)Nc2ccccc2)c(O)c1 [Compound 5B, 2,6-dihydroxy-4-(2-methyloctan-2-yl)-N-phenylbenzamide]
inhibition of Id-1 expression [1]: significant potency | IC50 [2]: 1000 to 5000 nM | effect on paclitaxel inhibition of cell viability [3]: can enhance the ability of paclitaxel to inhibit the viability | IC50 [4]: < 500 nM | IC50 [5]: < 500 nM | IC50 [6]: < 500 nM | inhibition of cardiac channel hERG [7]: no inhibition | IC50 [8]: 640 to 750 nM
